The values below come from patent publication US9517237B2, “Compounds and methods for treating multiple sclerosis” (NEURO VIGOR, LLC, priority 2010, dated 2016).

SMILES strings stand for the structures.

One series has as its system EAE mice. Here is the method: Animals. C57BL/6 female mice (8 weeks old) were purchased from Harlan Laboratories and were maintained in the lab animal housing facilities. These studies were performed in compliance with the Purdue Animal Care and Use Committee protocol guidelines at Purdue University, West Lafayette, Ind.
Induction of EAE. Nine-twelve week old mice were subcutaneously injected with 0.1 mL MOG35-55/CFA emulsion (EK-0115, Hooke Laboratories) in the neck and lower back (total of 0.2 mL). Within two hours of the injection, 0.1 mL pertussis toxin (EK-0115, Hooke Laboratories) was administered intraperitoneally. A second dose of pertussis toxin of the same volume was given 22-26 hours later. The behavioral performance was assessed using a well established 5-point behavioral scoring system (Kalyvas and David, 2004). The animals were placed on a metal grate and their walking ability was recorded. The scoring system is as follows: 0—no deficit; 1—limp tail only; 2—hind limb paresis but without leg dragging; 3—partial hind limb weakness with one or both legs dragging; 4—complete hind limb paralysis; 5—moribund, paralysis in hind limbs and possibly in one forelimb. The animals were monitored and assessed three times during the first week and then assessed daily for the remainder of the study.
(§1) Hydralazine Treatment. A solution of hydralazine hydrochloride (Sigma) was prepared with phosphate buffered saline. The solution was then sterilized through a filter and stored at 4° C. Hydralazine (1 mg/kg) was administered through daily with intraperitoneal injections from the day the MOG/CFA emulsion was administered until the end of the 30 day study period. For sham treatments, mice were administered saline intraperitoneally rather than the hydralazine solution. Blood pressures were monitored using a CODA 2 system (Kent Scientific Corp.).
(§2) One group of EAE mice are injected with hydralazine (EAE+HZ) at the dose of 1 mg/kg daily starting from the day of induction (n=11). In the sham-treated group (EAE), an equal amount of saline is injected daily (n=12). Both hydralazine and saline (sham) treatments are carried out for 30 days post induction. The behavioral scores of the two groups of mice are recorded daily (FIG. 2 panel A).
Phenelzine is administered via intraperitoneal (IP) injections at 15 mg/kg for 30 days. […] The highest score for each mouse was taken and averaged within each group. All data are expressed as mean±SEM.

The conditions of series [1]: mouse, in vivo. Here is the method:
as §1, §2

The test system of another series is acrolein-lysine adducts. Conditions: EAE mice treated with hydralazine, n=3, mean±SEM; EAE 20.27±3.0, control 12.30±1.3.
In another series the test system is EAE mice spinal cord. Conditions: thoracic spinal cord cross section, n=3, sham treated 25.58±3.8%.

Description for EAE mice spinal cord: Mice were perfusion fixed with 4% paraformaldehyde and the vertebral columns were removed and fixed in 4% paraformaldehyde overnight. Spinal cord tissues were extracted out of the vertebral column, cut into 1 cm pieces, and further fixed in 4% paraformaldhyde for 24-48 hours. The samples were cryoprotected by incubating for 24 h in a 10% sucrose solution, followed by 24 hours in a 20% sucrose solution. The samples were then imbedded in Tissue-Tek OCT compound (VWR, Batavia, Ill.) and frozen in liquid nitrogen. 15 μm sections were cut using a cryostat and mounted on gelatin coated slides. Sections were incubated with 5% goat serum and 0.5% Triton-X100 in phosphate buffered saline (PBS) for 30 minutes as blocking agents. […] All sections were observed by fluorescence microscopy.
For quantification, the thoracic sections were imaged, and Adobe Photoshop was used to outline the demyelination area and total white matter area. Pixel area for each sample was calculated and the percentage of demyelination was obtained by dividing the total demyelinated area by total white matter area. […] For each of the 3 groups, (control, EAE, EAE+HZ), 3 animals were used for immunofluorescence quantification.
Total white matter area and lesion areas are manually outlined and the pixel area is calculated. Percent demyelination is calculated by dividing total demyelinated area by total white matter area.
Description for acrolein-lysine adducts: Acrolein-lysine adducts in the tissue homogenate was measured using a Bio-Dot SF Microfiltration Apparatus (Bio-Rad, Hercules, Calif., USA), as previously described (Luo et al., 2005a; Shao et al., 2006; Hamann et al., 2008a). Briefly, the tissue was homogenized with TritonX-100 (3%), and the following anti-proteases were added: 2 mmol/L pefabloc, 15 lmol/L pepstatin A, 20 µg/mL aprotinin, and 25 µg/mL leupeptin. The solution was centrifuged to pellet large pieces of tissue and the supernatant was stored at −80° C. until transferred to a nitrocellulose membrane. The membrane was blocked for 1 h in blocking buffer (0.2% casein and 0.1% Tween 20 in PBS) and transferred to 1:1000 polyclonal rabbit anti-acrolein (in blocking buffer with 2% goat serum and 0.025% sodium azide) (Novus Biologicals) for 18 h at 4° C. Next, the membrane was washed in blocking buffer and then transferred to 1:10000 alkaline phosphatase conjugated goat anti-rabbit IgG. […]
The optical density of bands was evaluated using Image J (NIH) and statistical comparison was performed with SAS 9.2 (SAS institute). […]
The acrolein-lysine adducts in control (n=3), EAE mice (n=3) and EAE+HZ mice (n=3) spinal cord are detected using Bio-Dot SF Microfiltration Apparatus. […] Band intensities are analyzed using ImageJ (NIH) and are expressed in arbitrary units. […] All data are expressed as mean±SEM.

Take `NNc1nncc2ccccc12` [hydralazine]: in the series on EAE mice (1 mg/kg daily i.p. from day of induction, n=11, mean±SEM, sham 15.42±0.4), the “average onset of symptoms” value is given as 21.73±2.1 days post induction. The “average behavioral score (highest score for each mouse averaged within group)” value in the series with EAE mice (5-point scale, 1 mg/kg daily i.p. from day of induction, mean±SEM, EAE group 3.33±0.3) is on record as 1.72±0.4. Further, in series [1], the “average systolic pressure of EAE mice” value amounted to 134.8±4.5 mmHg and the “average systolic pressure of normal mice” value is on record as 118.5±6.4 mmHg. Also, the “acrolein-lysine adduct level in EAE mice spinal cord” value in the series on acrolein-lysine adducts is given as 15.14±1.6 a.u. Besides, the “percent demyelination in white matter” value in the series with EAE mice spinal cord was 5.10±4.2%.
For `NNCCc1ccccc1` [phenelzine], the “behavioral scores evaluated daily” value with EAE mice (5-point scale, phenelzine IP 15 mg/kg for 30 days, vs sham) is given as “significant differences for all comparisons following day 14”. The “mean behavioral scores (highest score for each mouse averaged)” value in the series with EAE mice (phenelzine IP 15 mg/kg for 30 days, vs EAE, p<0.005) is “mean behavioral scores are significantly increased in EAE mice compared to the phenelzine treated (EAE+PLZ) group”. In addition, the “time to EAE symptom onset” value in the series on EAE mice (phenelzine IP 15 mg/kg for 30 days, vs sham, p<0.005) is recorded as “significant delay in disease progression”.
